Patent publication US7223864B2, “2-hydroxyethidium, methods of preparation and uses thereof” (MCW Research Foundation, Inc., priority 2004, dated 2007)
Values belong to the compound of their own block, whether it stands above or below them.

Assays:
[1] = system: X/XO-catalyzed oxidation of HE (superoxide); test: Oxidation of HE by xanthine/xanthine oxidase (X/XO), fluorescence; type: biochemical; conditions: for effect on increase in fluorescence due to X/XO-catalyzed oxidation of HE: HE 50 μM, DNA 250 μg mL^−1, SOD 20 μg mL^−1, catalase 1000 U mL^−1
Procedure: (A) Incubation mixtures consisted of HE (50 μM), xanthine (1 mM), DTPA (100 μM), and XO (0.05 U mL^−1) in aerated phosphate buffer (100 mM, pH 7.4). Reaction was initiated by the addition of XO and the fluorescence spectrum recorded after 30 min. Shown for comparison is the spectrum obtained from E^+ (50 μM) obtained under identical experimental conditions. (B) Same as (A) but in the presence of DNA (250 μg mL^−1). (C) Incubations contained HE (50 μM), DTPA (100 μM) and DNA (250 μg mL^−1) and xanthine (1 mM) or XO (0.05 U mL^−1), both in the presence and absence of SOD (20 μg mL^−1). (D) Same as (B) but in the presence of catalase (1000 U mL^−1).
(A) Incubation initially consisted of HE (50 μM), xanthine (1 mM), XO (0.025 U mL^−1) and DTPA (100 μM) in phosphate buffer (100 mM, pH 7.4). A 50 μM of DEA/NO added at the point indicated by downward arrow. After the increase in fluorescence intensity ceased, an additional bolus amount of HE was added. (B) Same as (A) except XO (0.005 U mL^−1) and DEA/NO were added at a much lower concentration (10 μM).
(§1) Fluorescence measurements—The oxidation of HE in a superoxide generating system was performed on a Shimadzu RF-5301 PC spectrofluorometer (Shimadzu Scientific Instruments Inc., Japan). Typically, excitation was at 510 nm with a 3 or 5 nm slit width and the spectra were recorded over a wavelength region of 540–800 nm using a 10 or 20 nm slit width. The fluorescence emission spectra indicate the actual color of the product of superoxide and HE reaction, E^+ and HE.

[2] = Fluorescence measurements (fluorescence spectral characteristics); type: physicochemical; conditions: for Fluorescence color / Emission maximum (nm): /DNA labels = in the presence of DNA; for Extinction coefficient (mM^−1)*: E^+: excitation maximum 518 nm, HE/superoxide product: excitation maximum 480 nm, slit 3 nm, emission slit 20 nm; for Emission maximum (nm): phosphate buffer (100 mM, pH 7.4)
Procedure: as §1
Superoxide generation was measured to be 8 μM/min.

[3] = Competition kinetic analysis of the reaction between HE and superoxide; conditions: tentative, competition with BMPO and Cu, Zn-SOD
Procedure: Kinetic analysis of the reaction between HE and superoxide—The rate constant between HE and superoxide was calculated from competition experiments. At saturating concentrations of HE, superoxide will be consumed as follows:
Dismutation of superoxide was not considered in our analysis, because at saturating concentrations of HE (compared to superoxide flux), this reaction is negligible (Vásquez-Vivar, J. et al. Free Radic. Biol. Med. 31:975–985, 2001). Thus, assuming a steady-state approximation, the rate of superoxide consumption will be equal to new fluorescent product (P) formation, defined by
[formula] where kHE is the apparent rate constant for the reaction of HE with superoxide under the experimental conditions. Therefore, the ratio between V and V0 that corresponds to the rate of new product formation in the presence and absence of scavenger, respectively, is defined by
[formula] The values of V and V0 can be calculated from variations in fluorescence intensity of new product over time. In these experiments, 5-tert-butoxycarbonyl 5-methyl-1-pyrroline N-oxide (BMPO) and bovine Cu, Zn-SOD were used to trap or dismutate superoxide. The rate constant used for the reaction between BMPO and superoxide was 77±5 M^−1 s^−1 (Rosen, G. et al. J. Biol. Chem. 277:40275–40280, 2002) and 3×10^9 M^−1 s^−1 for Cu, Zn-SOD. […]

[4] = biological target: T1, endothelial nitric oxide synthase (eNOS) (Bos taurus, UniProt P29473); test: Oxidation of HE by endothelial NOS, fluorescence; type: biochemical; conditions: SOD 20 μg mL^−1; BH4 10 μM; Ca^2+/CaM
T1 construct: made in house; host or cells: Escherichia coli
Procedure: (A) Incubations consisted of NADPH (0.1 mM), DTPA (100 μM), HE (50 μM), L-arginine (0.1 mM), purified eNOS (6.25 μg mL^−1), and Ca^2+ (0.2 mM)/CaM (20 μg mL^−1) in a HEPES buffer (50 mM, pH 7.4). Spectra were obtained 30 min after the addition of eNOS to different incubation mixtures. […] (B) Time-dependent changes in fluorescence of the product formed from an incubation mixture containing NADPH (0.1 mM), HE (50 μM), DTPA (100 μM), Ca^2+ (0.2 mM)/CaM (20 μg mL^−1), and purified eNOS (6.25 μg mL^−1) in a HEPES buffer (50 mM, pH 7.4). (C) Same as (B) except in the presence of SOD (20 μg mL^−1).
as §1

[5] = literature value used in competition analysis; cited from earlier work
[6] = system: oxidation of HE by potassium superoxide; test: Oxidation of HE by potassium superoxide, fluorescence; type: biochemical; conditions: SOD 20 μg mL^−1, KO2 1.1 mM
Procedure: (A) Incubations consisted of HE (50 μM), DTPA (100 μM), and KO2 in the presence and absence of DNA (250 μg mL^−1) in phosphate buffer (100 mM, pH 7.4). Superoxide solution was prepared by adding 1 mg of KO2 in 1 mL of dry DMSO and vortexed vigorously for 10 min. The reaction was initiated by adding 40 μL of freshly prepared KO2 in DMSO to 0.46 mL of the above buffer (final concentration of KO2 was 1.1 mM). (B) Same as (A) but also containing SOD (20 μg mL^−1). The extent of oxidation of HE under these conditions is much less than that observed in X/XO.
as §1

[7] = system: Bovine aortic endothelial cells; test: Intracellular detection of superoxide with HE in menadione-treated cells; type: cell-based; conditions: 25 min menadione exposure, then 10 μM HE for 20 min; versus control cells
Procedure: Bovine aortic endothelial cells were treated with menadione, a redox-cycling quinone known to induce cellular oxidative stress. After 25 min of exposure, cells were washed free of extracellular menadione and treated with 10 μM of HE for 20 min. Cells were washed and fluorescent images obtained in a fluorescence microscope. […] Cells were lysed and products extracted with n-butanol. After centrifugation to separate out the cell debris, the top layer of butanol was dried, dissolved in water, and HPLC/fluorescence chromatogram was obtained (FIG. 12). The intense peak eluting at 29 min corresponds to that of 2-hydroxyethidium (FIG. 12, top trace). For better separation in biological samples, a linear increase in CH3CN concentration from 10% to 70% in 46 min was used instead of a linear increase in CH3CN concentration from 10% to 40% in 30 min. The other HPLC analysis conditions were same as described above.

Compound: CCN(CC)[N+]([O-])=NO [DEA/NO, 2-(N,N-diethylamino)-diazenolate-2-oxide]
effect on increase of fluorescence due to superoxide-dependent oxidation of HE by X/XO ([1]; DEA/NO 10 μM, XO 0.005 U mL^−1): inhibited

Compound: CCN1c2cc(N)ccc2-c2ccc(N)cc2C1c1ccccc1 (centres unmarked) [HE, Hydroethidine (dihydroethidium)]
Fluorescence color [2]: Red
Extinction coefficient (mM^−1)* [2]: 48 mM⁻¹
Emission maximum (nm) [2]: 595 nm
rate constant between the superoxide anion and HE [3]: approximately 2.6±0.6×10^5 M^−1 s^−1

effect on increase in fluorescence due to X/XO-catalyzed oxidation of HE [1]: completely nullified
effect on oxidation of HE by eNOS [4]: inhibited the oxidation of HE
Compound: Cu, Zn-SOD: Bovine copper, zinc superoxide dismutase
rate constant used for the reaction with superoxide [5]: 3e+09 M⁻¹ s⁻¹
effect on formation of fluorescent product from HE and potassium superoxide [6]: inhibited the formation of this product

Compound: CC(C)(C)OC(=O)C1(C)CCC=[N+]1[O-] (centres unmarked) [BMPO, 5-tert-butoxycarbonyl 5-methyl-1-pyrroline N-oxide]
rate constant used for the reaction with superoxide [5]: 77 ± 5 M⁻¹ s⁻¹

Compound: CC1=CC(=O)c2ccccc2C1=O [menadione]
fluorescence of cells after HE (fluorescence microscope) [7]: intense red fluorescence

effect on increase in fluorescence due to X/XO-catalyzed oxidation of HE [1]: increased slightly
Compound: catalase

Fluorescence color [2]: Orange
Extinction coefficient (mM^−1)* [2]: 285 mM⁻¹
Emission maximum (nm) [2]: 586 nm
emission maximum ([2]; purified product, in the presence of DNA (250 μg mL^−1) in phosphate buffer): 567 nm
Compound: CC[n+]1c(-c2ccccc2)c2cc(N)ccc2c2cc(O)c(N)cc21 [HE/superoxide product, 2-hydroxyethidium]

Compound: CC[n+]1c(-c2ccccc2)c2cc(N)ccc2c2ccc(N)cc21 [E^+, ethidium]
Fluorescence color [2]: Red
Extinction coefficient (mM^−1)* [2]: 232 mM⁻¹
Emission maximum (nm) [2]: 603 nm
Emission maximum (nm) ([2]; listed as ethidium): 605 nm
